Measurements as given in patent US20250314644A1, “METHODS COMPRISING DETECTION OF ADP-HEPTOSE” (CHILDREN'S HOSPITAL MEDICAL CENTER, priority 2023, published 2025).

How the values were obtained:
TIFA-TdT THP1 cells = assay: TIFAsome formation assay; format: cell-based, human
Protocol: THP1-TIFA-tdTomato cells (1*10^6) were stimulated with various human plasma samples (100 μl) for 30 mins in a 37° C. water bath in final volume of 200 μl. Cells were harvested, washed with PBS+2% FBS+2 mM EDTA (MACS buffer) and fixed with 4% Paraformaldehyde (PFA, Cat no. 15710, Electron Microscopy Sciences). After fixation, cells were washed again and then resuspended in 50 μl MACS buffer. Cells were then analyzed for TIFAsome formation on an Amnis Imagestream Mk II Imaging Flow Cytometer ISX-100 (Luminex) according to the manufacturer's instructions. Downstream analysis was performed in IDEAS analysis software (Amnis). TIFAsome positive cells were identified by gating on Mean Pixel Intensity and Max Pixel Intensity for bright puncta analysis using the IDEAS Image Data Exploration and Analysis Software. A standard curve was prepared by calculating % TIFAsome positive cells using samples which were stimulated with serial increasing doses of ADP-heptose covering the concentration range of 10 to 100,000 ng/ml. […]
THP1-TIFA-tdTomato-GFP cells were suspended at 1×10^6 cells/mL and treated with either human plasma samples (50 μl) in final volume of 200 μl for 30 minutes, or the inhibitor for 1 hour to allow for entry into the cell and then stimulated with ADP-heptose for 30 minutes. […] Images were acquired using a Nikon Ni-E Upright widefield fluorescent scope and analyzed using Nikon Elements.

MDS CD34+ HSPCs = assay: Immunoblot of NF-κB activation in CD34+ HSPCs; format: cell-based, human
Protocol: (§1) Human CD34+ and MDS patient cells were maintained in StemSpan Serum-Free Expansion Media (Cat no. #09650, Stemcell Technologies) supplemented with 10 ng/ml of recombinant human stem cell factor (SCF) (Cat no. 300-07-50UG, PeproTech), recombinant human thrombopoietin (TPO) (Cat no. 300-18-50UG, PeproTech), recombinant human FLT3 ligand (FLT3L) (Cat no. 300-19-50UG, PeproTech), recombinant human interleukin-3 (IL-3) (Cat no. 200-03-50UG, PeproTech), and recombinant human interleukin-6 (IL-6) (Cat no. 200-06-50UG, PeproTech), as previously described. Human CD34+ cells from healthy individuals were obtained from the Yale Cooperative Center of Excellence in Hematology (YCCEH). […]
(§2) Protein concentration was evaluated by bicinchoninic acid (BCA) assay (Pierce, Cat #23225). SDS sample buffer was added to the lysates and the proteins were separated by SDS-polyacrylamide gel electrophoresis, transferred to PVDF or nitrocellulose membranes (BIO-RAD, Cat #1620112), and analyzed by immunoblotting. […] Membranes were visualized using ECL Western Blotting Substrate (Pierce, #32106) or SuperSignal West Femto Substrate (Thermo Scientific, #34096), imaged on a BIO-RAD ChemiDoc Touch Imaging system and analyzed with Image lab software 6.0.1 (Biorad) or Image J (22930834).

healthy donor cells = assay: Immunoblot of NF-κB activation in CD34+ HSPCs; format: cell-based, human
Protocol: as §1, §2

Dnmt3a^−/− mice = assay: Cytokines measured in BM fluid after ADP-heptose in vivo; set-up: species or system mouse
Protocol: FIG. 9 depicts the effects of ADP-heptose on inflammatory cytokines and downstream signaling. (A) Heatmap of differentially expressed cytokines and chemokines as measured in the BM fluid of Dnmt3a^WT, Dnmt3a^KO, and Dnmt3a^KO; Alpk1^KO mice treated with ADP-heptose (0.5 mg/kg) in vivo. (B) Immunoblotting performed on THP1 cells untreated or treated with ADP-heptose (1 μg/ml) in combination with DMSO (−), UBE2N inhibitor at 5 μM (+), UBE2N inhibitor at 10 μM (++), IRAK1/4 inhibitor at 0.25 μM (+), and IRAK1/4 inhibitor at 0.5 μM (++) for 30 minutes. (C) Immunoblot analysis of NF-kB modulators on THP1 wildtype (WT), IRAK1KO, IRAK4KO, IRAK1/4d^KO, MyD88KO, and TRAF6^KO cells upon treatment with ADP-heptose (1 μg/ml) for 30 minutes.
Dysregulation of innate immune and inflammatory states is implicated in pre-leukemic conditions and overt leukemia by creating an inflammatory environment suppressive for normal hematopoiesis while promoting leukemic stem and progenitor cell expansion. Moreover, chronic inflammation associated with CHIP is implicated in cardiovascular disease. […] First, to determine whether ADP-heptose treatment creates an inflammatory milieu, Dnmt3a^−/− and WT mice were treated with ADP-heptose and cytokines were measured in the BM fluid.

SMILES: Nc1ncnc2c1ncn2[C@@H]1O[C@H](COP(=O)(O)OP(=O)(O)O[C@@H]2O[C@H]([C@H](O)CO)[C@@H](O)[C@H](O)[C@@H]2O)[C@@H](O)[C@H]1O [ADP-heptose, ADP-D-glycero-β-D-manno-heptose]
- TIFAsome formation (discrete puncta in the cytoplasm) (TIFA-TdT THP1 cells): rapidly induce TIFAsome formation
- TIFA-dependent activation of NF-κB (phosphorylated IKKα/β and RelA) (MDS CD34+ HSPCs): able to induce TIFA-dependent activation of NF-κB
- TIFA-dependent activation of NF-κB (phosphorylated IKKα/β and RelA) (healthy donor cells): not in healthy donor cells
- cytokines in BM fluid (IL-1β, G-CSF, TNFα) (Dnmt3a^−/− mice): elevated expression of numerous cytokines
